Data from US20150315212A1, “SUBSTITUTED 1,4-DITHIINE DERIVATIVES AND THEIR USE AS FUNGICIDES” (BASF SE, priority 2012, published 2015).

Legend:
Phakopsora pachyrhizi = experiment: Protective control of soy bean rust on soy beans (Example 5); assay type: in vivo; details: 500 ppm, sprayed to run-off 1 day before inoculation, soy bean seedlings, assessed after fourteen days; untreated plants 90% infected
Alternaria solani = details: 500 ppm, sprayed the day before inoculation, tomato seedlings, assessed after 5 days; untreated plants 90% infected
Procedure: Preventative Fungicidal Control of Early Blight on Tomatoes (Alternaria solani)
Young seedlings of tomato plants were grown in pots. These plants were sprayed to run-off with an aqueous suspension, containing the concentration of active ingredient or mixture mentioned in the table below. The next day, the treated plants were inoculated with an aqueous suspension of Alternaria solani. Then the trial plants were immediately transferred to a humid chamber. After 5 days at 18 to 20° C. and a relative humidity close to 100%, the extent of fungal attack on the leaves was visually assessed as % diseased leaf area.

Septoria tritici = experiment: Preventative control of leaf blotch on wheat (Example 4); assay type: in vivo; details: 500 ppm, sprayed the day before inoculation, wheat seedlings, assessed after 4 weeks; untreated plants 90% infected

6-Methyl-5H-Pyrrolo[3″,4″:5,6][1,4]dithiino-[2,3-C]isothiazole-3-carbonitrile-5,7(6H)-dione [Example 1.1]
infection (% diseased leaf area) (Phakopsora pachyrhizi): less than or equal to 1%
infection (% diseased leaf area) (Alternaria solani): less than or equal to 5%
infection (% diseased leaf area) (Septoria tritici): less than or equal to 3%
